Assay results taken from ChEMBL document CHEMBL1147304, “Antioxidant metabolites from the tunicate Amaroucium multiplicatum” (J Nat Prod, 1989).
≈ marks a conversion by molar mass, not a printed value.

Key:
Liver microsomes = experiment: Antioxidant activity in rat liver microsomes assessed as inhibition of lipid peroxide formation after 30 mins; type: functional, Microsome
[1] = Inhibition of soybean arachidonate 15-lipoxygenase by oxygen electrode method; design: species or system Glycine max

IC50 (Liver microsomes) [µg/mL]	IC50 [1] [µg/mL]	SMILES
0.1 (≈ 0.406 µM)	0.2 (≈ 0.812 µM)	CC(C)=CCC/C(C)=C/Cc1cc(O)ccc1O [GEROQUINOL]
0.3 (≈ 1.36 µM)	> 10	Cc1cc(C(C)(C)C)c(O)c(C(C)(C)C)c1 [BUTYLATED HYDROXYTOLUENE]
> 10	> 10	CC(=O)Oc1c(C)c(C)c2c(c1C)CCC(C)(CCC[C@H](C)CCC[C@H](C)CCCC(C)C)O2 (stereo partly drawn) [TOCOPHEROL ACETATE]
0.3 (≈ 1.13 µM)	3 (≈ 11.3 µM)	CC(C)=CCCC(C)(O)CCc1cc(O)ccc1O (stereo not drawn)
0.3 (≈ 1.23 µM)	0.2 (≈ 0.819 µM)	CC(C)=CCCC1(C)C=Cc2cc(O)ccc2O1 (stereo not drawn) [CORDIACHROMENE A]
0.1 (≈ 0.364 µM)	0.5 (≈ 1.82 µM)	COc1cc2c(cc1O)C=CC(C)(CCC=C(C)C)O2 (stereo not drawn)
0.3 (≈ 1.14 µM)		CC(C)=CCCC(C)(O)/C=C/c1cc(O)ccc1O (stereo not drawn)
